Laboratory results from paper PMC2732577 (Biochemistry, 2008).
“Also recorded” adds a separate entry of the source. Ends that are not written are not given here.

Columns and labels:
Assay type in all cases: biochemical
Pf-Sir2 [1] = target: T1, Pf-Sir2 (Plasmodium falciparum, UniProt Q8IE47)
T1 sequence (Q8IE47 1-273): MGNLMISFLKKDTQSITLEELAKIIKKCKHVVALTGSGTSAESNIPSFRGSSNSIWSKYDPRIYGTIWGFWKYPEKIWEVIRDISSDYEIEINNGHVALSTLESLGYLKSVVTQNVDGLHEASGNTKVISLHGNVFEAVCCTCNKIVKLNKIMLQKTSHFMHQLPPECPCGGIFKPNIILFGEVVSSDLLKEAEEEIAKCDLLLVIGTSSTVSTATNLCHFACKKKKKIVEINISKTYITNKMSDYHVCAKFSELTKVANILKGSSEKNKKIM

Pf-Sir2 [2] = target: T1, Pf-Sir2; remark: listed apart in the source
Pf-Sir2 [3] = target: T1, Pf-Sir2; remark: listed apart in the source
Pf-Sir2 [4] = target: T1, Pf-Sir2; assay: Thionicotinamide base-exchange assay; settings: similar reaction conditions, H3 substrate
Pf-Sir2 [5] = target: T1, Pf-Sir2; assay: Decomposition of AADPR in presence of Pf-Sir2; settings: data not shown

Molecule: NC(=O)c1ccc[n+]([C@@H]2O[C@H](COP(=O)([O-])OP(=O)(O)OC[C@H]3O[C@@H](n4cnc5c(N)ncnc54)[C@H](O)[C@@H]3O)[C@@H](O)[C@H]2O)c1 [NAD^+, nicotinamide adenine dinucleotide oxidized form]
- Km (Pf-Sir2 [1]; read-out: Km for NAD^+ in H3 deacetylation): 120 µM
- rate of peptide-independent solvolysis vs deacetylation (Pf-Sir2 [2]): exceeds the deacetylation rate for H3
- kcat, NAD^+ hydrolysis, no peptide (Pf-Sir2 [2]; pH 7.3): 1.2 ± 0.2 10^−3 s^−1
- stereochemistry of Pf-Sir2 methanolysis product (Pf-Sir2 [3]): inverted stereochemistry; also recorded: only α-1-O-methyl-ADPR as a product (no β)
- k0 (α-MeO-ADPR) (Pf-Sir2 [3]; pH 8.5): 0.00027 s⁻¹
- ksolvolysis (combined ADPR and 1-O-methyl-ADPR) (Pf-Sir2 [3]; pH 8.5): 0.00138 s⁻¹

Molecule: NC(=S)c1cccnc1 [thionicotinamide]
- base-exchange Km, times higher than nicotinamide (Pf-Sir2 [4]): 8 times
- base-exchange, times slower than nicotinamide (Pf-Sir2 [4]): approximately 4 times

Molecule: O-acetyl-adenosine diphosphoribose [AADPR]
- decomposition of AADPR on adding Pf-Sir2 to SIRT1 reaction mixture (Pf-Sir2 [5]): not decomposed
- decomposition of purified AADPR in presence of Pf-Sir2 (Pf-Sir2 [5]; relative to a control): not decomposed faster relative to a control

Molecule: p300: human di-acetylated p300 sequence corresponding to amino acid positions 1034–1053 (ATQSSPAPGQSKKKIFKPEE; also: di-acetylated, places not given here; UniProt Q09472 1034-1053, looked up, fragment)
- deacetylation co-product (Pf-Sir2 [1]): 2′- and 3′- O-acetyl-ADP-ribose (AADPR)
- stimulation of NAD^+ hydrolysis by peptide (Pf-Sir2 [2]): best hydrolysis stimulating substrate
